In DBAASP:
≈ marks a conversion by molar mass, not a printed value. Blank lines part the entries; values can stand above or below the compound they belong to.

What was measured:
Test in all cases: ≥ marks a high value that may be exact or a test limit, other limits are often not marked, values filed in µg/mL are converted to µM
[1] = test system: Candida albicans ATCC 2048
[2] = test system: Candida glabrata ATCC 90525
Candida krusei ATCC 6258 = test system: Candida krusei ATCC 6258
[3] = test system: Candida parapsilosis ATCC 20224
[4] = test system: Candida tropicalis ATCC 20240
[5] = test system: Candida albicans ATCC 18804
Escherichia coli MG1655 = test system: Escherichia coli MG1655
[6] = test system: Staphylococcus aureus ATCC 33592
[7] = test system: Micrococcus luteus 1D00051
[8] = test system: Staphylococcus aureus 1D00101
[9] = test system: Vibrio vulnificus 1H00066
[10] = test system: Escherichia coli K12 MG1655
Escherichia coli UTI89 = test system: Escherichia coli UTI89
[11] = test system: Salmonella enterica subsp. enterica serovar Typhimurium ATCC 14028
[12] = test system: Staphylococcus epidermidis
Escherichia coli D31 = test system: Escherichia coli D31
[13] = test system: Klebsiella pneumoniae ATCC 700603
[14] = test system: Pseudomonas aeruginosa ATCC 10145
[15] = test system: Staphylococcus aureus ATCC 27660
[16] = test system: Acinetobacter baumannii ATCC 19606
Acinetobacter baumannii = test system: Acinetobacter baumannii
[17] = test system: Bacillus subtilis ATCC 6051
[18] = test system: Candida albicans ATCC 90028
[19] = test system: Cryptococcus neoformans ATCC 208821
[20] = test system: Escherichia coli ATCC 25922
[21] = test system: Klebsiella pneumoniae ATCC 13883
[22] = test system: Klebsiella pneumoniae ATCC BAA-2146
Klebsiella pneumoniae = test system: Klebsiella pneumoniae
[23] = test system: Pseudomonas aeruginosa ATCC 27853
Pseudomonas aeruginosa = test system: Pseudomonas aeruginosa
[24] = test system: Staphylococcus aureus ATCC 43300
[25] = test system: Acinetobacter baumannii ATCC BAA-1605
[26] = test system: Acinetobacter baumannii KCCM 40203
[27] = test system: Bacillus subtilis KCTC 3068
[28] = test system: Candida parapsilosis ATCC 22019
[29] = test system: Enterococcus faecalis KCCM 11814
[30] = test system: Enterococcus faecalis KCCM 29212
[31] = test system: Enterococcus faecium ATCC 51559
[32] = test system: Enterococcus faecium KCCM 12118
[33] = test system: Escherichia coli KCTC 1682
[34] = test system: Malassezia furfur KCTC 7744
[35] = test system: Pseudomonas aeruginosa CCARM 2180
[36] = test system: Salmonella typhimurium KCTC 1926
[37] = test system: Staphylococcus epidermidis KCTC 1917
[38] = test system: Trichosporon beigelii KCTC 7707
[39] = test system: Salmonella typhimurium CMCC 50013
[40] = test system: Staphylococcus aureus ATCC 29213

Structure (SMILES): CC(C)C[C@H](NC(=O)[C@H](C)N)C(=O)N[C@@H](CCC(N)=O)C(=O)NCC(=O)N[C@@H](C)C(=O)N[C@@H](CCCCN)C(=O)N[C@@H](CCC(=O)O)C(=O)N[C@@H](CCCN=C(N)N)C(=O)N[C@@H](C)C(=O)N[C@@H](Cc1cnc[nH]1)C(=O)N[C@@H](CCC(N)=O)C(=O)N[C@@H](CCC(N)=O)C(=O)O [ALQGAKERAHQQ]
- MIC [1]: ≥ 280 µM
- MIC [2]: ≥ 260 µM
- MIC (Candida krusei ATCC 6258): ≥ 270 µM
- MIC [3]: ≥ 270 µM
- MIC [4]: ≥ 75 µM

Structure (SMILES): CC[C@H](C)[C@H](NC(C)=O)C(=O)N[C@@H](CCCCN)C(=O)N[C@@H](CCCN=C(N)N)C(=O)N[C@@H](CC(C)C)C(=O)N[C@@H](CC(N)=O)C(=O)N[C@@H](CO)C(=O)N[C@@H](Cc1c[nH]c2ccccc12)C(=O)N[C@@H](CC(C)C)C(=O)N[C@@H](CCCN=C(N)N)C(=O)N[C@@H](CCCCN)C(N)=O [IKRLNSWLRK]
- MIC [5]: ≥ 128 µM
- MIC (Escherichia coli MG1655): ≥ 64 µM
- MIC [6]: ≥ 128 µM

Structure (SMILES): CC[C@H](C)[C@H](NC(=O)[C@H](CCCN=C(N)N)NC(=O)[C@@H](NC(=O)[C@H](CCSC)NC(=O)[C@@H]1CCCN1C(=O)CNC(=O)[C@H](Cc1cnc[nH]1)NC(=O)[C@@H](NC(=O)[C@H](CCCCN)NC(=O)[C@H](CCCN=C(N)N)NC(=O)[C@H](CCCN=C(N)N)NC(=O)[C@H](CCCN=C(N)N)NC(=O)[C@H](CS)NC(=O)[C@@H](N)CCCCN)C(C)C)[C@@H](C)CC)C(=O)N[C@@H](CCCN=C(N)N)C(=O)N[C@@H](CCCCN)C(=O)N[C@@H](CCCCN)C(=O)O [KCRRRKVHGPMIRIRKK]
- MIC [7]: 9 µM (≈ 19.5 µg/mL)
- MIC [8]: 4 µM (≈ 8.65 µg/mL)
- MIC [9]: ≥ 80 µM

Structure (SMILES): CC[C@H](C)[C@H](NC(=O)[C@H](CCCCN)NC(=O)[C@@H](N)CCCCN)C(=O)NCC(=O)N[C@@H](CCC(N)=O)C(=O)N[C@@H](CCCCN)C(=O)N[C@H](C(=O)N[C@@H](CCCCN)C(=O)N[C@@H](CC(N)=O)C(=O)N[C@@H](Cc1ccccc1)C(=O)N[C@@H](Cc1ccccc1)C(=O)N[C@@H](CCC(N)=O)C(=O)N[C@@H](CCCCN)C(=O)N[C@@H](CC(C)C)C(=O)O)[C@@H](C)CC [KKIGQKIKNFFQKL]
- MIC [10]: ≥ 50 µM
- MIC (Escherichia coli UTI89): ≥ 50 µM
- MIC [11]: > 50 µM
- MIC [12]: ≥ 50 µM

Structure (SMILES): CC[C@H](C)[C@H](NC(=O)CNC(=O)[C@H](CCCCN)NC(=O)[C@H](Cc1c[nH]c2ccccc12)NC(=O)[C@H](CC(C)C)NC(=O)[C@H](CCCCN)NC(=O)[C@H](CCCCN)NC(=O)[C@H](C)NC(=O)[C@H](CCCCN)NC(=O)[C@H](CCCCN)NC(=O)[C@H](Cc1ccccc1)NC(=O)CNC(=O)[C@H](CCCCN)NC(=O)[C@H](C)NC(=O)[C@H](Cc1ccccc1)NC(=O)[C@@H](NC(=O)[C@H](CCCCN)NC(=O)[C@@H](NC(=O)[C@H](CC(C)C)NC(=O)[C@H](CCCCN)NC(=O)[C@@H](N)CCCCN)[C@@H](C)CC)C(C)C)C(=O)NCC(=O)O [KKLIKVFAKGFKKAKKLWKGIG]
- MIC (Escherichia coli D31): 0.94 µM (≈ 2.37 µg/mL)
- MIC [13]: 1.88 µM (≈ 4.73 µg/mL)
- MIC [14]: 1.88 µM (≈ 4.73 µg/mL)
- MIC [15]: 0.97 µM (≈ 2.44 µg/mL)

Second part, the compound after the results:

- MIC [16]: 0.462 µM (≈ 0.998 µg/mL)
- MIC (Acinetobacter baumannii): 0.925 µM (≈ 2 µg/mL)
- MIC [17]: 0.231 µM (≈ 0.499 µg/mL)
- MIC [18]: 7.4 µM (≈ 16 µg/mL)
- MIC [19]: 1.85 µM (≈ 3.99 µg/mL)
- MIC [20]: 0.231 µM (≈ 0.499 µg/mL)
- MIC [21]: 0.925 µM (≈ 2 µg/mL)
- MIC [13]: 3.7 µM (≈ 7.99 µg/mL)
- MIC [22]: 3.7 µM (≈ 7.99 µg/mL)
- MIC (Klebsiella pneumoniae): > 7.4 µM
- MIC [23]: 3.7 µM (≈ 7.99 µg/mL)
- MIC (Pseudomonas aeruginosa): 7.4 µM (≈ 16 µg/mL)
- MIC [24]: 7.4 µM (≈ 16 µg/mL)
Structure (SMILES): CC[C@H](C)[C@@H]1NC(=O)CNC(=O)[C@H](CCCN=C(N)N)NC(=O)CNC(=O)[C@@H]2CSSC[C@H](NC1=O)C(=O)N[C@@H](Cc1ccc(O)cc1)C(=O)N[C@@H](CCCN=C(N)N)C(=O)N[C@@H](CCCN=C(N)N)C(=O)N[C@H](C(=O)N[C@@H](CCCN=C(N)N)C(=O)O)CSSC[C@H](NC(=O)[C@H](Cc1c[nH]c3ccccc13)NC(=O)[C@@H](N)CCCCN)C(=O)N[C@@H](Cc1ccccc1)C(=O)N[C@@H](CCCN=C(N)N)C(=O)N[C@@H](C(C)C)C(=O)N2 [KWCFRVCGRGICYRRCR]

- MIC [25]: ≥ 80 µM
- MIC [26]: ≥ 80 µM
- MIC [27]: 3.51 µM (≈ 4 µg/mL)
- MIC [18]: 0.614 µM (≈ 0.699 µg/mL)
- MIC [28]: 0.614 µM (≈ 0.699 µg/mL)
- MIC [29]: ≥ 80 µM
- MIC [30]: 7.01 µM (≈ 7.99 µg/mL)
- MIC [31]: 1.75 µM (≈ 2 µg/mL)
- MIC [32]: 7.01 µM (≈ 7.99 µg/mL)
- MIC [33]: 3.51 µM (≈ 4 µg/mL)
- MIC [34]: 0.614 µM (≈ 0.699 µg/mL)
- MIC [35]: ≥ 80 µM
- MIC [36]: 3.51 µM (≈ 4 µg/mL)
- MIC [37]: 3.51 µM (≈ 4 µg/mL)
- MIC [38]: 1.32 µM (≈ 1.5 µg/mL)
Structure (SMILES): CC[C@H](C)[C@H](NC(=O)[C@H](Cc1c[nH]c2ccccc12)NC(=O)[C@H](CC(C)C)NC(=O)[C@@H](N)CC(C)C)C(=O)N[C@@H](C)C(=O)N[C@@H](CC(C)C)C(=O)N[C@@H](CCCN=C(N)N)C(=O)N[C@@H](CCCCN)C(=O)N[C@@H](CCCCN)C(N)=O [LLWIALRKK]

- MIC [27]: 5.9 µM (≈ 12.2 µg/mL)
- MIC [20]: 10.3 µM (≈ 21.4 µg/mL)
- MIC [39]: 20.8 µM (≈ 43.1 µg/mL)
- MIC [40]: 11 µM (≈ 22.8 µg/mL)
Structure (SMILES): CC[C@H](C)[C@H](NC(=O)[C@@H](N)CO)C(=O)N[C@@H](CO)C(=O)N[C@@H](CC(C)C)C(=O)N[C@@H](CC(C)C)C(=O)N[C@@H](Cc1ccc(O)cc1)C(=O)NCC(=O)N[C@@H](CCCN=C(N)N)C(=O)N[C@@H](CCCCN)C(=O)N[C@@H](CCCCN)C(=O)N[C@@H](CCCN=C(N)N)C(=O)N[C@@H](CCCN=C(N)N)C(=O)N[C@@H](CCC(N)=O)C(=O)N[C@@H](CCCN=C(N)N)C(=O)N[C@@H](CCCN=C(N)N)C(=O)N[C@@H](CCCN=C(N)N)C(=O)O [SISLLYGRKKRRQRRR]
